We go through one molecule from patent US12186392B2, “Combination therapy of an anti CD20 antibody with a BTK inhibitor” (Ono Pharmaceutical Co., Ltd., priority 2013, dated 2025).

Data set [1] relates to TMD8 (ABC-DLBCL) cells. Kind of data set: Antitumor activity study of compound A or compound B (in diet) in combination with RTX in TMD8 xenograft model (Example 3). It is filed as in vivo, SCID mice. The note with it: for Tumor growth inhibition (TGI): vs vehicle group, RTX 3 mg/kg i.v. Q7Dx3, compound A 0.0037% in diet (6 mg/kg/day), compound B 0.012% in diet (20 mg/kg/day). The procedure: Mice were xenografted on DO. […] Mice received one IV injection of Rituximab (at 3 mg/kg) once a week (D14 (Day 0), 21 (Day 7) and 28 (Day 14): Q7D×3). Tumor volumes were monitored and recorded at Day 3, Day 7, Day 11, Day 14, Day 18 and Day 21.
Female C.B-17/lcr-SCID/SCIDJcl mice (Clea Japan Inc., age at initiation of experiment: 6 weeks; hereinafter referred to as “Scid mice”) were used. The mice were kept in metal mouse cages, 3 to 5 to a cage, and underwent about 1 week acclimation period prior to being subjected to the experiment. While at our facility, the animals were allowed solid feed, CRF-1 (Oriental Yeast Co., Ltd.) and tap water (from an automatic dispenser) ad libitum. Excrement was processed with an automated cleaning system. The general condition of the animals was observed upon receipt and at the completion of acclimation. Animals having no problems with general condition were used in the experiment.
TMD8 was established from cells of a patient with diffuse large B-cell lymphoma (Tohda S et al., Leuk Res., 2006, 30: 1385-90). RPMI Medium 1640 (Invitrogen Corporation, hereinafter referred to as “RPMI”) containing 10 vol % inactivated FBS and 1 vol % Penicillin-Streptomycin liquid (Invitrogen Corporation) was prepared and used as medium. The medium was stored at 5° C. (allowable range: 1° C. to 9° C.). The cell suspension of 4×106 to 2.0×10^7 cells per dish was inoculated in a 150 mm dish containing the medium. The plates were incubated at 37° C., 5% CO2, 95% air.
At Day 0, the pellet was suspended in RPMI previously cooled on ice to obtain a 2×10^8 cells/mL cell suspension. The RPMI cell suspension and equal volume of BD Matrigel GFR (BD Biosciences) were combined to prepare a 1×10^8 cells/mL cell suspension. This was used as the cell suspension for implantation. Then, 0.1 mL of cell suspension was subcutaneously injected in the right flank of the mice under pentobarbital anesthesia, using a 25-gauge needle (Terumo Corporation).
The long axis and short axis of the tumors were measured with electronic calipers (Mitutoyo Corporation) every 2 or 4 days from TMD8 implantation to the final assessment day.
The primary endpoint was tumor volume on the final assessment day. In addition, the tumor growth inhibition rate (TGI, %) in the treatment groups versus the vehicle group was calculated. Temporal change in tumor volume and body weight from Day 0 were used as secondary endpoints. Tumor volume was calculated with the following formula. Tumor volume=Long axis of tumor×(short axis of tumor)2×0.5
The experiment in Example 3 was performed according to the method described in Example 1 except for the following “substance vehicle”, “route of drug administration” and “treatment schedule”
The comparative substance, ibrutinib (hereinafter referred to as “compound B”), was stored in sealed containers at ambient temperature, protected from light.
The dose of compound A or compound B corresponds to a daily intake of 6 or 20 mg/kg of body weight.
Treatment groups: Mice fed the same diet containing compound A or compound B after randomization. Rituximab was administered intravenously at a 3 mg/kg once weekly.
Tumor diameter was measured and tumor volume was calculated every 3 or 4 days after group assignment.

Data set [2] relates to NK cell-mediated cytotoxicity. To be noted: Kohrt H E et al., Blood 123, 1957-1960, 2014; cited from earlier work.

Take `C=CC(=O)N1CCC[C@@H](n2nc(-c3ccc(Oc4ccccc4)cc3)c3c(N)ncnc32)C1` [compound B, ibrutinib]: the “Tumor growth inhibition (TGI)” value in data set [1] (day 0) is 0.4%; in data set [1] (day 3) it was 3.2%; in data set [1] (day 7), 19.1%; in data set [1] (day 11), 34.91%; in data set [1] (day 14), 40.2%; in data set [1] (day 18) it was 39.2%. In addition, the “Tumor growth inhibition (TGI)” value in data set [1] (day 21) is given as 47.1%. Besides, the “Statistical significance observed after Day” value in data set [1] (monotherapy, RTX 3 mg/kg i.v., compound A 0.0037%, compound B 0.012% in diet) was above 11 days. In addition, the “Effect on RTX-dependent NK cell-mediated cytotoxicity” value in data set [2] is reported as “antagonizes RTX-dependent NK cell-mediated cytotoxicity”.
